Results as given in patent EP3443956A1, “A COMPOUND INCREASING ENDOCANNABINOIDS CONCENTRATION IN A SUBJECT FOR USE FOR PREVENTING AND/OR TREATING A SOCIAL BEHAVIOR DISORDER” (INSTITUT NATIONAL DE LA SANTE ET DE LA RECHERCHE MEDICALE …, priority 2017, dated 2019).
Read-outs that look alike come from different tables or passages of the source.

What was measured:
[1] = tested on: eCB-LTD of excitatory synapses onto layer 5 mPFC pyramidal neurons; experiment: Field potential recordings of eCB-LTD in mPFC slices; parameters: species or system rat
Method: (§1) Treatment was performed daily with the CB1 R receptor agonist WIN55,212-2 (0.5 mg/kg) or Delta9-Tetrahydrocannabinol (THC, 5 mg/kg) or their respective vehicles from GD 5 to GD 20. WIN55,212-2 was suspended in 5% DMSO, 5% cremophor and saline, and injected s.c. at a volume of 1 ml/kg. Control dams (Sham group) received a similar volume injection of vehicle solution. THC was suspended in 5% Ethanol, 5% cremophor and saline, and injected s.c. at a volume of 1 ml/kg.
(§2) Pups were weaned at 21 days of age. For behavioral and electrophysiological experiments male and female rats were tested at adulthood (postnatal day 90-120).
Adult male and female rats were anesthetized with isoflurane and killed as previously described (Martin and Manzoni, 2014). The brain was sliced (300 µm) in the coronal plane with a vibratome (Integraslice, Campden Instruments) in a sucrose-based solution at 4°C (in mm as follows: 87 NaCl, 75 sucrose, 25 glucose, 2.5 KCI, 4 MgCl2, 0.5 CaCl2, 23 NaHCO3 and 1.25 NaH2PO4). Immediately after cutting, slices containing the medial prefrontal cortex (PFC) or accumbens were stored for 1 h at 32°C in a low calcium ACSF that contained (in mm) as follows: 130 NaCl, 11 glucose, 2.5 KCI, 2.4 MgCl2, 1.2 CaCl2, 23 NaHCO3, 1.2 NaH2PO4, and were equilibrated with 95% 02/5% CO2 and then at room temperature until the time of recording.
Field potential recordings were made in coronal slices containing the mPFC or the accumbens as previously described (Robbe et al., 2002). During the recording, slices were placed in the recording chamber and superfused at 2 ml/min with either low Ca2+ ACSF for mPFC or normal ACSF for the accumbens. All experiments were done at 32°C or room temperature for mPFC and accumbens, respectively. The superfusion medium contained picrotoxin (100 µM) to block GABA Type A (GABA-A) receptors. All drugs were added at the final concentration to the superfusion medium.
For extracellular field experiments, the recording pipette was filled with ACSF.
Both fEPSP area and amplitude were analyzed. Stimulation was performed with a glass electrode filled with ACSF and the stimulus intensity was adjusted ∼60% of maximal intensity after performing an input-output curve (baseline EPSC amplitudes ranged between 50 and 150 pA). Stimulation frequency was set at 0.1 Hz.
The magnitude of plasticity was calculated 38-40 min after induction as percentage of baseline responses. Statistical analysis of data was performed with Prism (GraphPad Software) using tests indicated in the main text after outlier subtraction. All values are given as mean ± SEM, and statistical significance was set at p < 0.05.

adult rats = type: in vivo, rat
Method: Wistar female rats (Charles River, France) weighing 250-280 g were housed at constant room temperature (20 ± 1°C) and humidity (60%), and exposed to a light cycle of 12 h/day (08:00 a.m. to 08:00 p.m.), with food and water available ad libitum. For mating, pairs of females were placed with single male rats in the late afternoon. Vaginal smears were taken the following morning at 09:00 a.m. The day on which sperm was present was designated as the day 0 of gestation (GD 0).
as §1, §2
The test was performed in a sound attenuated chamber under dim light conditions. The testing arena consisted of a Plexiglas cage measuring 45 × 45 cm, with 2 cm of wood shavings covering the floor. Social behavior was assessed as previously described (Trezza et al., 2012).
Briefly, adult rats were individually habituated to the test cage for 5 min (adult rats) on each of the 2 days prior to testing. Before testing, adult animals were socially isolated for 24 h, respectively, to enhance their social motivation and thus facilitate the expression of social behaviors during testing. Drug treatments were counterbalanced so that cage mates were allocated to different treatment groups. […] Behavior was assessed per pair of animals and analyzed by a trained observer who was unaware of treatment condition using the Ethovision XT video tracking software (Noldus, Wageningen, The Netherlands).
The test consisted of placing two similarly treated animals into the test cage for 10 min (adult rats). In rats, a bout of social play behavior starts with one rat soliciting ('pouncing') another animal, by attempting to nose or rub the nape of its neck. The animal that is pounced upon can respond in different ways. If the animal that is pounced upon fully rotates to its dorsal surface, 'pinning' is the result, i.e., one animal lying with its dorsal surface on the floor with the other animal standing over it. From this position, the supine animal can initiate another play bout, by trying to gain access to the other animal's neck. Thus, during social play, pouncing is considered an index of play solicitation, while pinning can be regarded as the terminal component of a single play bout as well as a releaser of a prolonged play bout. Pinning and pouncing frequencies can be easily quantified and they are considered to be the most characteristic parameters of social play behavior in rats. During the social encounter, animals may also display social behaviors not directly associated with play, such as sniffing or grooming the partner's body. A pair of rats was considered as one experimental unit. […]

[2] = tested on: eCB-LTD of excitatory synapses onto medium spiny neurons (MSNs); experiment: Field potential recordings of eCB-LTD in accumbens slices
[3] = Sham adult female rats, capsazepine 5 mg/Kg i.p., 30 min before testing

## N#Cc1cc2[nH]c(=O)c(=O)[nH]c2cc1[N+](=O)[O-] [CNQX]
[1]; CNQX 20 µM at the end of the experiments, data not shown
  effect on the field EPSP (fEPSP): specifically blocked the synaptic component without altering the nonsynaptic component

## Cc1c(C(=O)NN2CCCCC2)nn(-c2ccc(Cl)cc2Cl)c1-c1ccc(Cl)cc1 [SR141716, 5-(4-chloro-phenyl)-1-(2,4-dichlorophenyl)-4-methyl-N-1-piperidinyl-1H-pyrazole-3-carboxamide]
Adult rats; adult male rats exposed in utero to WIN55,212-2, SR141716 1 mg/kg i.p. 30 min before URB597 0.1 mg/Kg i.p.
  effect on the curating actions of URB597 on social interaction: prevented the curating actions of URB597
Adult rats; adult rats, SR141716 1 mg/kg i.p.
  effect of the antagonist by itself on social interaction: did not induce effects by itself
[1]; Sham adult male rats, slices preincubated for 45 min in 5 µM SR141716
  effect on LTD in mPFC: completely blocked LTD
[1]; adult females exposed in utero to WIN55,212-2, slices preincubated for 45 min in 5 µM SR141716
  effect on LTD of evoked EPSPs in mPFC: not mediated by CB1 R receptors
[1]; adult male rats exposed in utero to WIN55,212-2, URB597 2 µM plus SR141716 5 µM
  block of the URB597 rescue of eCB-LTD: blocked the URB597 rescue

## NC(=O)c1cccc(-c2cccc(OC(=O)NC3CCCCC3)c2)c1 [URB597, (3'-(aminocarbonyl)[1,1'-biphenyl]-3-yl)-cyclohexylcarbamate]
Adult rats; adult male rats exposed in utero to WIN55,212-2, URB597 0.1 mg/kg i.p., 2 h before testing
  social interaction (social deficits): ameliorated social deficits
[1]; adult male rats exposed in utero to WIN55,212-2, slices incubated with URB597 2 µM for 45-90 min before LTD induction
  restoration of eCB-LTD in the PFC: sufficient to restore eCB-LTD

## Cc1c(C(=O)c2cccc3ccccc23)c2cccc3c2n1[C@H](CN1CCOCC1)CO3 [WIN55,212-2]
Adult rats; rat, in vivo
  distance travelled during the test: 3779 ± 228.8 cm
Adult rats; rat, in vivo, sc
  contact with congeners (total frequency of social interaction): had less contact with their congeners
  time in social interactions: spent less time in social interactions
  total frequency of social interaction: no difference
  total time of social interaction: no difference
[2]
  eCB-LTD in accumbens: robust eCB-LTD

## Oc1cc2c(cc1O)CN(C(=S)NCCc1ccc(Cl)cc1)CCC2 [capsazepine, N-[2-(4-Chlorophenyl)ethyl]-1,3,4,5-tetrahydro-7,8-dihydroxy-2H-2-benzazepine-2-carbothioamide]
Adult rats; [3]
  frequency of social interaction: reduced
  total time of social interaction: reduced
Adult rats; adult rats exposed in utero to WIN55,212-2, capsazepine with URB597 0.1 mg/kg i.p.
  effect on the curating effects of URB597 on social interaction: did not block the curating effects of URB597
[1]; Sham adult female rats, slices preincubated for 45 min in 10 µM capsazepine
  effect on LTD in mPFC: completely blocked LTD
